Measured values: ChEMBL document CHEMBL1150773, “Novel donepezil-based inhibitors of acetyl- and butyrylcholinesterase and acetylcholinesterase-induced beta-amyloid aggregation” (J Med Chem, 2008)

Key:
Acetylcholinesterase [1] = target: T1, Acetylcholinesterase (Bos taurus, UniProt P23795)
T1 sequence (P23795 whole entry): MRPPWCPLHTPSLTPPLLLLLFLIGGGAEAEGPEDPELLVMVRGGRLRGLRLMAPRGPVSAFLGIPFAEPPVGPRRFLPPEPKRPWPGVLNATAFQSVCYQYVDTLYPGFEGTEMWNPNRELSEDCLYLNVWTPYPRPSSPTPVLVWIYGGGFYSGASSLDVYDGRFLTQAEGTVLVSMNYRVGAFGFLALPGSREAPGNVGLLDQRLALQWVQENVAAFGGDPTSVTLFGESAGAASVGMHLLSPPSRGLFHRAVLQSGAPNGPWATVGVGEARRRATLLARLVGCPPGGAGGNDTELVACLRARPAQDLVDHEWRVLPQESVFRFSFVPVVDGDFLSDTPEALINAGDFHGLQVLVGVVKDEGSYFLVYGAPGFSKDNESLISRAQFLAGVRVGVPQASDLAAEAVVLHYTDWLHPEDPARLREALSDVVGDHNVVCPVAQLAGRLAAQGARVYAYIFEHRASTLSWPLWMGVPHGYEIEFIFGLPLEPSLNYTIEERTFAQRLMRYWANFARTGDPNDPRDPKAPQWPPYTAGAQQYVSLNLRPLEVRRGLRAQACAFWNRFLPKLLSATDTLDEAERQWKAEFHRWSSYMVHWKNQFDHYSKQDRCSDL
Description: Inhibition of bovine erythrocyte AChE by Ellman's assay

Acetylcholinesterase [2] = target: Acetylcholinesterase (Homo sapiens, UniProt P22303)
Description: Inhibition of human erythrocyte AChE by Ellman's assay

Cholinesterase = Cholinesterase (Homo sapiens, UniProt P06276)
Chain of Cholinesterase (P06276 whole entry): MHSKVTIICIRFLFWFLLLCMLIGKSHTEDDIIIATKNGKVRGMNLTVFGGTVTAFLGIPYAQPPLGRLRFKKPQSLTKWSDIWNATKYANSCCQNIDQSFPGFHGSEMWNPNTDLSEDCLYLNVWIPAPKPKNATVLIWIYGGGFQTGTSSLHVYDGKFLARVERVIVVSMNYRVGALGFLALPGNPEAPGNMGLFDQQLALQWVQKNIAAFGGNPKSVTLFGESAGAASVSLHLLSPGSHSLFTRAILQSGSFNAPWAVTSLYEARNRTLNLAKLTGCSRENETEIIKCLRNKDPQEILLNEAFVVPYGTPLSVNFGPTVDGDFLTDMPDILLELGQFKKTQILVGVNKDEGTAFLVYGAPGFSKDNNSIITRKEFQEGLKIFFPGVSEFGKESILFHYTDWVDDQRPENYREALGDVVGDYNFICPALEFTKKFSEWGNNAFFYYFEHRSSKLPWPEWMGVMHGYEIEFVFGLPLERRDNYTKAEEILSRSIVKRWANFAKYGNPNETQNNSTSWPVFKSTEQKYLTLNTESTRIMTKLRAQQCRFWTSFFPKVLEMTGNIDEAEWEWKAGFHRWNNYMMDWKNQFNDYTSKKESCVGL
Description: Inhibition of human serum BChE by Ellman's assay

Chain of Acetylcholinesterase (Homo sapiens, UniProt P22303) (P22303 whole entry): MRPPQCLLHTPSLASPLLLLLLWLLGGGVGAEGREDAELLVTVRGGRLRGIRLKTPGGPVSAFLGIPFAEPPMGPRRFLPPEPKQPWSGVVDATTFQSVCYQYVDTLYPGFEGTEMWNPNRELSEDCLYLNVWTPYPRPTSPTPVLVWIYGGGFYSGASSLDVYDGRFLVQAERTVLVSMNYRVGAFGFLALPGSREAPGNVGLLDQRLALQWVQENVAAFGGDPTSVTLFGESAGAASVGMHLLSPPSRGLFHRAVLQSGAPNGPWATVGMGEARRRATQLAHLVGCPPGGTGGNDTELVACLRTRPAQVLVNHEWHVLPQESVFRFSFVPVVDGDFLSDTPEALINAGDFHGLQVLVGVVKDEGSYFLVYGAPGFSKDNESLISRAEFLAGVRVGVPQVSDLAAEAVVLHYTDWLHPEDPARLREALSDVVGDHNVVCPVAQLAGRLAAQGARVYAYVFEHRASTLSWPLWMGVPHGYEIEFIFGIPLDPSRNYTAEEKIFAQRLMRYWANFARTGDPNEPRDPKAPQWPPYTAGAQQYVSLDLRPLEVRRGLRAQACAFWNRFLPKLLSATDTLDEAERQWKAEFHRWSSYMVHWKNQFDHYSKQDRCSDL

SMILES | IC50 (Acetylcholinesterase [1]) [nM] | IC50 (Acetylcholinesterase [2]) [nM] | IC50 (Cholinesterase) [nM]
COc1cc2c(cc1OC)CC(CC1CCN(CCNc3c4c(nc5ccccc35)CCCC4)CC1)C2 | 2.28 | 5.13 | 8.06
COc1cc2c(cc1OC)CC(CC1CCN(CCCNc3c4c(nc5ccccc35)CCCC4)CC1)C2 | 0.82 | 2.16 | 7.25
COc1cc2c(cc1OC)CC(CC1CCN(CCNc3c4c(nc5cc(Cl)ccc35)CCCC4)CC1)C2 | 1.86 | 2.6 | 88.7
COc1cc2c(cc1OC)C(=O)C(CC1CCN(CCNc3c4c(nc5cc(Cl)ccc35)CCCC4)CC1)C2 (configuration not stated) | 0.57 | 0.67 | 136
COc1cc2c(cc1OC)C(=O)C(CC1CCN(CCCNc3c4c(nc5cc(Cl)ccc35)CCCC4)CC1)C2 (configuration not stated) | – | – | 66.3
COc1cc2c(cc1OC)C(=O)C(CC1CCN(CCCNc3c4c(nc5ccccc35)CCCC4)CC1)C2 (configuration not stated) | 0.29 | 0.88 | 12.3
COc1cc2c(cc1OC)CC(CC1CCN(CCCNc3c4c(nc5cc(Cl)ccc35)CCCC4)CC1)C2 | 0.82 | 1.06 | 72.7
Nc1c2c(nc3cc(Cl)ccc13)CCCC2 | 5.73 | – | –
COc1cc2c(cc1OC)CC(CC1CCN(Cc3ccccc3)CC1)C2 | 1450 | – | 6400
